Results published in US5641760A, “Method of treating candida infection” (Pence, Inc., priority 1994, dated 1997).

Tests used:
[1] = test system: Candida albicans strain #40 fimbriae (enriched fimbriae EF, 66 kDa fimbrial subunit/adhesin protein); assay: Inhibition of fimbriae binding to immobilized glycosphingolipids by free glycosphingolipids
Method: The binding specificity to GSLs was assessed in experiments in which free GSLs were tested for their abilities to inhibit binding of C. albicans fimbriae to immobilized GSLs. These experiments were carried out using the microtiter plate assay described above, and as further detailed in Example 5B. C. albicans fimbriae (50 μg/ml) were preincubated with varying concentrations of asialo-GM1 or CTH at 37° C. for an hour prior to addition into the precoated microtiter wells. In this assay, GSLs were suspended in phosphate buffered saline (PBS) at a sufficiently low concentration to prevent micellar formation. C. albicans fimbriae binding to immobilized asialo-GM1 was reduced by 78% (Diamonds, FIG. 11B) by asialo-GM1.
Polystyrene microtiter plate wells (Nunc) were coated with asialo-GM1 or ceramide trihexoside (CTH) (Sigma Chem. Co., St. Louis, Mo.). Aliquots of the GSLs (5 μg/ml resuspended in methanol) were added into the wells (100 μl/well) and the plates were incubated overnight at 4° C. The wells were washed three times with 250 μl/well of 10 mM phosphate buffered saline pH 7.4 containing 150 mM NaCl (PBS) supplemented with 0.05% (w/v) bovine serum albumin (Buffer A). Excess binding sites were blocked by the addition of 200 μl/well of 5% (w/v) BSA in PBS pH 7.4 and incubation at 37° C. for 1 hour. Wells were washed three times with 250 μl/well of buffer A. Enriched fimbriae ranging from 0 to 40 μg protein/ml in Buffer A were added to the wells (100 μl/well) and incubated for 2 hour at 37° C. Aliquots of mouse anti-EF monoclonal antibodies, Fm16 (diluted 1:500), was added to each well (100 μl) and incubated at 37° C. for 2 hours. Wells were washed 5 times with 250 μl/well of Buffer A. Antibody binding to EF was assessed by the addition of a goat anti-mouse heavy and light chain [IgG(H+L)] immunoglobulin G-peroxidase conjugates (Jackson Laboratories) to each well (100 μl/well) and incubated for 1 hour at 37° C. […] The reaction was stopped by an addition of 125 μl/well of 4 mM sodium azide and the absorbance at 405 nm was recorded. […]

[2] = test system: Candida albicans strain #40 fimbriae (enriched fimbriae EF, 66 kDa fimbrial subunit/adhesin protein); assay: Microtiter plate binding of fimbriae to immobilized glycosphingolipids; settings: GSL immobilized in microtiter wells (0.5 μg/well)
Method: Binding of Candida fimbriae to GSLs was further assessed using an assay in which GSLs were immobilized on microtiter plates. […] The amount of fimbriae bound is represented as the absorbance values measured at 405 nm. The concentration of fimbrial protein required for half-maximal binding was determined to be 8 μg/ml under the assay conditions, indicating a reasonably high affinity of fimbriae for asialo-GM1.
Polystyrene microtiter plate wells (Nunc) were coated with asialo-GM1 or ceramide trihexoside (CTH) (Sigma Chem. Co., St. Louis, Mo.). Aliquots of the GSLs (5 μg/ml resuspended in methanol) were added into the wells (100 μl/well) and the plates were incubated overnight at 4° C. The wells were washed three times with 250 μl/well of 10 mM phosphate buffered saline pH 7.4 containing 150 mM NaCl (PBS) supplemented with 0.05% (w/v) bovine serum albumin (Buffer A). […] Wells were washed 5 times with 250 μl/well of Buffer A. Antibody binding to EF was assessed by the addition of a goat anti-mouse heavy and light chain [IgG(H+L)] immunoglobulin G-peroxidase conjugates (Jackson Laboratories) to each well (100 μl/well) and incubated for 1 hour at 37° C. […] The reaction was stopped by an addition of 125 μl/well of 4 mM sodium azide and the absorbance at 405 nm was recorded.

[3] = test system: Candida albicans fimbriae (binding to human BECs); assay: Inhibition of fimbriae binding to human buccal epithelial cells (BECs); assay type: cell-based; settings: fimbriae 50 μg preincubated with competitor 1 h at 37° C., 2.0×10^5 BECs
Method: The percent inhibition is the inhibition of binding in the presence of the competing antigens with respect to binding observed in the absence of any competitors.
The fimbrial adherence assay was performed using a Manifold filtration apparatus equipped with individual vacuum stopcocks (Model FH 225V, Hoefer Scientific Instruments). Polycarbonate filters, 12 μm pore size (Nucleopore Costar Corp.), were pre-incubated overnight at 4° C. with 50 ml of PBS pH 7.2, containing 0.45% (v/v) Tween 20. The pretreated filters were placed into each chamber and washed with 2.5 ml of PBS. 1 ml containing 2.0×10^5 BECs in PBS was added to each chamber. Enriched fimbriae (100 μl/chamber, ranging from 0 to 80 μg fimbriae protein/ml) in PBS containing 0.05% (v/v) Tween-20 was added to each chamber and incubated with the BECs for 1.5 hours at room temperature. Unbound fimbriae were removed with washes of 2.5 ml of PBS. Mouse anti-C. albicans fimbriae monoclonal antibody (ascites fluid diluted 1:3000 with PBS) was added to the BECs (1.2 ml/chamber) and incubated for 1.5 hour at room temperature. BECs were washed five times with 2.5 ml of PBS. Goat anti-mouse IgG(H+L)-peroxidase conjugates (Jackson Laboratories) diluted 1:5000 with PBS was added (1.0 ml/chamber) and incubated for another hour at room temperature. The cells were then washed seven times with 2.5 ml/chamber of PBS. The polycarbonate filters containing BECs were removed from the filtration manifold and placed into glass scintillation vials. The horseradish peroxidase substrate solution (ABTS) was added to each vial (1 ml/vial) and incubated for 30 min at room temperature on a shaker at 100 rpm. The reaction was stopped by the addition of 4 mM sodium azide (200 μl/vial). The substrate solution was pipetted into Eppendorf tubes and centrifuged at 5,000 g for 3 minutes. Aliquots of the supernatants were pipetted into microtiter wells (200 μl/well) and the resulting absorbance at 405 nm was recorded with a Titertek Multiskan Plus microplate recorder. […]

## ceramide trihexoside [CTH, ceramide trihexoside [aGal(1-4)βGal(1-4)βGlc(1-1)Cer]]
[1]; fimbriae 50 μg/ml preincubated with competitor (0 to 15 μg/ml)
  Competition of fimbriae binding: No competition
[2]; EF 0 to 40 μg protein/ml
  Binding of fimbriae to glycosphingolipid coated on wells: failed to bind
[3]
  Inhibition of C. albicans fimbriae binding to BECs: failed to inhibit

## gangliotetraosylceramide: βGal(1-3)βGalNAc(1-4)βGal(1-4)βGlc(1-1)Cer [asialo-GM1]
[1]; fimbriae 50 μg/ml preincubated with competitor (0 to 15 μg/ml) 1 h at 37° C.
  Reduction of fimbriae binding to immobilized asialo-GM1: 78%
[1]; fimbriae 50 μg/ml, immobilized asialo-GM1
  Concentration required for half-maximal inhibition: 1.44 µg/mL
[2]; the concentration is that of fimbrial protein
  Concentration of fimbrial protein required for half-maximal binding: 8 µg/mL
[3]; competitor concentration not stated
  Inhibition of C. albicans fimbriae binding to BECs: 80%
